In the kinase profiling compilation of Christmann-Franck et al. (2016):

Experiments:
Test in all cases: radiometric filter-binding kinase assay
[1] = system: ROCK2 (rat); settings: accession and sequence are those of the human protein
[2] = biological target: BRSK1 (human) (UniProt Q8TDC3)
[3] = biological target: MAPK11 (human) (UniProt Q15759)
[4] = biological target: CSK (human) (UniProt P41240)
[5] = biological target: JAK2 JH1 JH2 (human) (UniProt O60674)
[6] = biological target: RPS6KA3 KD1 KD2 (human) (UniProt P51812)
RPS6KA3 KD1 KD2 (human), sequence (P51812 whole entry, looked up): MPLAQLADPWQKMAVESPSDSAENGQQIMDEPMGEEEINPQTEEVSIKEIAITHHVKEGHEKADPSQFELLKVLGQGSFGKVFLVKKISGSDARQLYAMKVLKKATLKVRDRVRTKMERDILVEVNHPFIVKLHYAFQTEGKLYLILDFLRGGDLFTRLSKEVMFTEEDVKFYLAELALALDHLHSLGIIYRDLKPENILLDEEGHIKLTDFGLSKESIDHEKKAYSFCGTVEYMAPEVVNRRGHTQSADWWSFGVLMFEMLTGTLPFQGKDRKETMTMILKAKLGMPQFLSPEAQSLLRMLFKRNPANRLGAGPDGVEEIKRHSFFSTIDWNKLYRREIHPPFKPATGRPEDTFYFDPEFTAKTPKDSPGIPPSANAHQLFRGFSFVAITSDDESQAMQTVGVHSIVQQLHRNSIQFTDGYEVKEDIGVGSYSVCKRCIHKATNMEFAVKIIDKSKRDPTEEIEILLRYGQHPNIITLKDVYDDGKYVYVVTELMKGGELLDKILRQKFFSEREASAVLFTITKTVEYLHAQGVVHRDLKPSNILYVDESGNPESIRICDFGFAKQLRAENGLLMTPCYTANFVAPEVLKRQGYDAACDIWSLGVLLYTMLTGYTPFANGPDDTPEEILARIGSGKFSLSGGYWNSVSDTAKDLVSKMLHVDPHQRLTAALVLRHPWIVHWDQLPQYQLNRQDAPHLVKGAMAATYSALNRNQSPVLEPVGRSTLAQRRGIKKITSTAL

[7] = biological target: IGF1R (human) (UniProt P08069)
[8] = biological target: MAPK15 (human) (UniProt Q8TD08)
[9] = biological target: PRKCZ (human) (UniProt Q05513)
[10] = biological target: CLK2 (human) (UniProt P49760)
[11] = biological target: DYRK3 (human) (UniProt O43781)
[12] = biological target: RIPK2 (human) (UniProt O43353)
[13] = system: AKT2 (human), P31751 [S474D]
[14] = biological target: SRC (human) (UniProt P12931)
[15] = biological target: INSR (human) (UniProt P06213)
INSR (human), sequence (P06213 whole entry, looked up): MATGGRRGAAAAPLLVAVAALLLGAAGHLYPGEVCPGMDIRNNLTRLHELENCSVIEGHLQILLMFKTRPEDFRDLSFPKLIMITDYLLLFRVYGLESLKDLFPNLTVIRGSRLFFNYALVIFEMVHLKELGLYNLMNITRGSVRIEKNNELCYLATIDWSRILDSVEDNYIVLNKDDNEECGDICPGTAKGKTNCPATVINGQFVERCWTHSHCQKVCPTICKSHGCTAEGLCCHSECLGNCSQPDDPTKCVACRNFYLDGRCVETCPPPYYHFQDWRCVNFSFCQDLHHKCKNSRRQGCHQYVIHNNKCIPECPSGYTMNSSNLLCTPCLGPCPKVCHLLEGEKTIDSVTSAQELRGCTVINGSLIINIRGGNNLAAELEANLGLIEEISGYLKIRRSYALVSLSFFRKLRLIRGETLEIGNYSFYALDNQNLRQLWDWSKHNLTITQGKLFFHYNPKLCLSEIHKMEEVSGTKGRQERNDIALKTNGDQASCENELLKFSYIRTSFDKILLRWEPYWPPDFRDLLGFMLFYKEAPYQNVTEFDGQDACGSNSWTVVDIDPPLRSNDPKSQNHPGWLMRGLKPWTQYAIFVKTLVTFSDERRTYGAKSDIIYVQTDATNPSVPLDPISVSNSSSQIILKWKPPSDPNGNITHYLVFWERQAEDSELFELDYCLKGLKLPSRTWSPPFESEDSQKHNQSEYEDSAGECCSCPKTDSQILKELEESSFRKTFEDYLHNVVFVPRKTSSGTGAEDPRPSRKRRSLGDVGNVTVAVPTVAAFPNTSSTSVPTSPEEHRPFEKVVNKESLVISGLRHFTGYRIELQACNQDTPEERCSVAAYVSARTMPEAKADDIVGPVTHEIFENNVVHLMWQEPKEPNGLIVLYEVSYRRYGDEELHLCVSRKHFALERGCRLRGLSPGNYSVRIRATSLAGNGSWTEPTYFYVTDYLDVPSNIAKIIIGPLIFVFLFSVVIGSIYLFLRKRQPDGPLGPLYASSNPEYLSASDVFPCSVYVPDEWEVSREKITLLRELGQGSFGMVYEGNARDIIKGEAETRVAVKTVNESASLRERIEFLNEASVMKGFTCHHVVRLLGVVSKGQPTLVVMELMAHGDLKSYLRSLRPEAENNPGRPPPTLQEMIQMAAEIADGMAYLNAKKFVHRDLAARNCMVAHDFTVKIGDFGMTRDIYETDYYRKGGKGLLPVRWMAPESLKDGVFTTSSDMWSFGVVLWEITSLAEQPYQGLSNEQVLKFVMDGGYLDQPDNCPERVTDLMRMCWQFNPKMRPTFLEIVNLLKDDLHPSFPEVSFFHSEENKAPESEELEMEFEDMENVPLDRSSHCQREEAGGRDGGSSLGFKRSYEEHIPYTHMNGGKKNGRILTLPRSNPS

[16] = system: LCK (mouse); settings: accession and sequence are those of the human protein
[17] = biological target: EPHA2 (human) (UniProt P29317)
[18] = biological target: HIPK3 (human) (UniProt Q9H422)
HIPK3 (human), sequence (Q9H422 whole entry, looked up): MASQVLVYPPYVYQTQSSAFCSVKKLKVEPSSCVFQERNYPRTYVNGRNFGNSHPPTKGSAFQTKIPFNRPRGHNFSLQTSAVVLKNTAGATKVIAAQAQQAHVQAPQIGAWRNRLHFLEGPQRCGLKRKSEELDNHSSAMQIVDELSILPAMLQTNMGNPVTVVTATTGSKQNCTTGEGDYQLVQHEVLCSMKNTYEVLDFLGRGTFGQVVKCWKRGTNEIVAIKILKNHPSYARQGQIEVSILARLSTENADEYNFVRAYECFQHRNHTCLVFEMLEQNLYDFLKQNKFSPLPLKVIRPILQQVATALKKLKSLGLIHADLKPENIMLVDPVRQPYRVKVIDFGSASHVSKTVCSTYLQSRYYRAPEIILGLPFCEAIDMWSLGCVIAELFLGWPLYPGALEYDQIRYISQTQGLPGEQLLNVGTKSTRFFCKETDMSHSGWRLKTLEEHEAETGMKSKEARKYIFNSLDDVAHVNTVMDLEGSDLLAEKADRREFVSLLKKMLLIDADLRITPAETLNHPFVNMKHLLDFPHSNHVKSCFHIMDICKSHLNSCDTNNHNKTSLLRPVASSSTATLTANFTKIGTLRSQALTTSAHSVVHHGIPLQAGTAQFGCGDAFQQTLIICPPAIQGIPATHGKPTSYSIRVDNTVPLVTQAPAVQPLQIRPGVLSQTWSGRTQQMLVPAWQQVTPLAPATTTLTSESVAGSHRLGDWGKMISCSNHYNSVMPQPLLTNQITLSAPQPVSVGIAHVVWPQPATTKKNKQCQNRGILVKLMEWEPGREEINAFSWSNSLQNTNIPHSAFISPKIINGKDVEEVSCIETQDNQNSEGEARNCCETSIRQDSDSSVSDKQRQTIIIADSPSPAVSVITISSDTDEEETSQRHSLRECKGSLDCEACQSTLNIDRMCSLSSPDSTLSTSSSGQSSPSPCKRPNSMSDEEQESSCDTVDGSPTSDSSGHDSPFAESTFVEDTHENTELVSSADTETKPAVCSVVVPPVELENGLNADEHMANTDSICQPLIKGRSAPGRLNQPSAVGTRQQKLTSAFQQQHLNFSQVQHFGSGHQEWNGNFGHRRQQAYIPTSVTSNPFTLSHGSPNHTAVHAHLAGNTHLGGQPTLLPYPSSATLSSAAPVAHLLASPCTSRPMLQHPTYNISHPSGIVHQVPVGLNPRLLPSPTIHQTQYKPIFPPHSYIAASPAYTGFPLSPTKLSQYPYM

[19] = biological target: IRAK4 (human) (UniProt Q9NWZ3)
[20] = biological target: MAPK14 (human) (UniProt Q16539)
[21] = biological target: NTRK1 (human) (UniProt P04629)
[22] = biological target: FLT1 (human) (UniProt P17948)
[23] = biological target: MAPKAPK5 (human) (UniProt Q8IW41)
[24] = biological target: CAMKK2 (human) (UniProt Q96RR4)
[25] = biological target: MAP3K7 TAB1 (human) (UniProt Q15750+O43318)
[26] = biological target: STK11 CAB39 STRADA (human) (UniProt Q9Y376+Q7RTN6+Q15831)
[27] = biological target: GSK3B (human) (UniProt P49841)
[28] = biological target: MARK1 (human) (UniProt Q9P0L2)
[29] = biological target: MAP3K1 (human) (UniProt Q13233)
[30] = biological target: MELK (human) (UniProt Q14680)
[31] = biological target: FGFR1 (human) (UniProt P11362)
[32] = biological target: MINK1 (human) (UniProt Q8N4C8)
MINK1 (human), sequence (Q8N4C8 whole entry, looked up): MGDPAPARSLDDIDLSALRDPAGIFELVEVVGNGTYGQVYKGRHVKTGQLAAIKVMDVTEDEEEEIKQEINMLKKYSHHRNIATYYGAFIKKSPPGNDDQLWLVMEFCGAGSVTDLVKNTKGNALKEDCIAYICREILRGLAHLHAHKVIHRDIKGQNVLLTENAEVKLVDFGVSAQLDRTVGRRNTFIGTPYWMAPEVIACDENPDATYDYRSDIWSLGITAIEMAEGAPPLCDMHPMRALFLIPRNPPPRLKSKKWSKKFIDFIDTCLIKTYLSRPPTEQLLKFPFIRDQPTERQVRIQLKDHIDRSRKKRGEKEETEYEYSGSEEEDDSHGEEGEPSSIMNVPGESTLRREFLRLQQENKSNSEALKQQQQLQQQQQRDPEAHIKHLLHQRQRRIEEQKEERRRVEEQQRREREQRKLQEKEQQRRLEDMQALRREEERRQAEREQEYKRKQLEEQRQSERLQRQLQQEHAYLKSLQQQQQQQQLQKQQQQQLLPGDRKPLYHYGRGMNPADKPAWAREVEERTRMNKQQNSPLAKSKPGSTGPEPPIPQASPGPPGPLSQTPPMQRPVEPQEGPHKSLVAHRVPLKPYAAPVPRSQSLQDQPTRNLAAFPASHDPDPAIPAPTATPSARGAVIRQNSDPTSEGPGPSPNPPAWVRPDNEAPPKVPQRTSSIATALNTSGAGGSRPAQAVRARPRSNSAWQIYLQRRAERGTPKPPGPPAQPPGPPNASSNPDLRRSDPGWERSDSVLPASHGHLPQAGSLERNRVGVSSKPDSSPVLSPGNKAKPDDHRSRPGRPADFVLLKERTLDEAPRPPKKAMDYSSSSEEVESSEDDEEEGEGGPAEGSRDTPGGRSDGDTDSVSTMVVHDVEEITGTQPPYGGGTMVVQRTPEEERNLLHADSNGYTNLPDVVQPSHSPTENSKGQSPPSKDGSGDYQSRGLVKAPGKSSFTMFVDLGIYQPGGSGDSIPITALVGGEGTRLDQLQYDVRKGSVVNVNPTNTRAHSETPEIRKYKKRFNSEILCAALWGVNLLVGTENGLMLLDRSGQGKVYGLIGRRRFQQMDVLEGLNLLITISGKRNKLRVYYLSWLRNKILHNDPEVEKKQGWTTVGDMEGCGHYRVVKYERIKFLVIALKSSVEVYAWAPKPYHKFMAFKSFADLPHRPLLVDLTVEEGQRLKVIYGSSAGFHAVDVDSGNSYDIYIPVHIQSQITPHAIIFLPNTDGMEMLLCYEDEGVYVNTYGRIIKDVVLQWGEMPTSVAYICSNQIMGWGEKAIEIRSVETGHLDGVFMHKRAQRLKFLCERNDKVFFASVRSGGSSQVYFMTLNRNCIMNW

[33] = biological target: CSNK1D (human) (UniProt P48730)
[34] = biological target: HIPK1 (human) (UniProt Q86Z02)

MAPK11 (human), sequence (Q15759 whole entry, looked up): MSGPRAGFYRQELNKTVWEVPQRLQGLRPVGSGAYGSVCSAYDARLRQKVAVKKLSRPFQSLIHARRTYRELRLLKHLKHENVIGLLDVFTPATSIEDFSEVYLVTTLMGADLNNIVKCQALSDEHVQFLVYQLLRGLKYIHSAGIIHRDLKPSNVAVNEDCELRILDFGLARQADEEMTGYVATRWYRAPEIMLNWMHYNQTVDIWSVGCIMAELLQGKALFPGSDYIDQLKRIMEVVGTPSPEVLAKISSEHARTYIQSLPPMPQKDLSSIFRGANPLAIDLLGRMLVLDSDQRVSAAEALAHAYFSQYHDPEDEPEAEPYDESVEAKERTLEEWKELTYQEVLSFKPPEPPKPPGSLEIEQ

## CC(C)C[C@H](NC(=O)CNC(=O)c1cc(Cl)ccc1Cl)B1OC(=O)CC(CC(=O)O)(C(=O)O)O1 (some centres not stated)
[1]; compound 10.0 µM
  residual activity: 76%
[2]; compound 10.0 µM
  residual activity: 90%
[3]; compound 10.0 µM
  residual activity: 70%
[4]; compound 10.0 µM
  residual activity: 69%
[5]; compound 10.0 µM
  residual activity: 104%
[6]; compound 10.0 µM
  residual activity: 94%
[7]; compound 10.0 µM
  residual activity: 87%
[8]; compound 10.0 µM
  residual activity: 100%
[9]; compound 10.0 µM
  residual activity: 95%
[10]; compound 10.0 µM
  residual activity: 79%
[11]; compound 10.0 µM
  residual activity: 97%
[12]; compound 10.0 µM
  residual activity: 91%
[13]; compound 10.0 µM
  residual activity: 82%
[14]; compound 10.0 µM
  residual activity: 86%
[15]; compound 10.0 µM
  residual activity: 58%
[16]; compound 10.0 µM
  residual activity: 81%
[17]; compound 10.0 µM
  residual activity: 98%
[18]; compound 10.0 µM
  residual activity: 118%
[19]; compound 10.0 µM
  residual activity: 79%
[20]; compound 10.0 µM
  residual activity: 88%
[21]; compound 10.0 µM
  residual activity: 95%
[22]; compound 10.0 µM
  residual activity: 64%
[23]; compound 10.0 µM
  residual activity: 92%
[24]; compound 10.0 µM
  residual activity: 86%
[25]; compound 10.0 µM
  residual activity: 127%
[26]; compound 10.0 µM
  residual activity: 124%
[27]; compound 10.0 µM
  residual activity: 88%
[28]; compound 10.0 µM
  residual activity: 81%
[29]; compound 10.0 µM
  residual activity: 92%
[30]; compound 10.0 µM
  residual activity: 80%
[31]; compound 10.0 µM
  residual activity: 69%
[32]; compound 10.0 µM
  residual activity: 73%
[33]; compound 10.0 µM
  residual activity: 81%
[34]; compound 10.0 µM
  residual activity: 111%

## Cc1cccc(-c2nn(C(=S)Nc3ccccc3)cc2-c2ccnc3ccccc23)n1
[1]; compound 0.1 µM
  residual activity: 96%
[1]; compound 1.0 µM
  residual activity: 104%
[2]; compound 0.1 µM
  residual activity: 110%
[2]; compound 1.0 µM
  residual activity: 95%
[3]; compound 0.1 µM
  residual activity: 89%
[3]; compound 1.0 µM
  residual activity: 61%
[4]; compound 0.1 µM
  residual activity: 97%
[4]; compound 1.0 µM
  residual activity: 93%
[5]; compound 0.1 µM
  residual activity: 107%
[5]; compound 1.0 µM
  residual activity: 93%
[6]; compound 0.1 µM
  residual activity: 126%
[6]; compound 1.0 µM
  residual activity: 109%
[7]; compound 0.1 µM
  residual activity: 97%
[7]; compound 1.0 µM
  residual activity: 103%
[8]; compound 0.1 µM
  residual activity: 108%
[8]; compound 1.0 µM
  residual activity: 93%
[9]; compound 0.1 µM
  residual activity: 98%
[9]; compound 1.0 µM
  residual activity: 100%
[10]; compound 0.1 µM
  residual activity: 106%
[10]; compound 1.0 µM
  residual activity: 98%
[11]; compound 0.1 µM
  residual activity: 102%
[11]; compound 1.0 µM
  residual activity: 93%
[12]; compound 0.1 µM
  residual activity: 26%
[12]; compound 1.0 µM
  residual activity: 9%
[13]; compound 0.1 µM
  residual activity: 108%
[13]; compound 1.0 µM
  residual activity: 96%
[14]; compound 0.1 µM
  residual activity: 102%
[14]; compound 1.0 µM
  residual activity: 75%
[15]; compound 0.1 µM
  residual activity: 108%
[15]; compound 1.0 µM
  residual activity: 94%
[16]; compound 0.1 µM
  residual activity: 105%
[16]; compound 1.0 µM
  residual activity: 62%
[17]; compound 0.1 µM
  residual activity: 105%
[17]; compound 1.0 µM
  residual activity: 92%
[18]; compound 0.1 µM
  residual activity: 105%
[18]; compound 1.0 µM
  residual activity: 99%
[19]; compound 0.1 µM
  residual activity: 101%
[19]; compound 1.0 µM
  residual activity: 99%
[20]; compound 0.1 µM
  residual activity: 56%
[20]; compound 1.0 µM
  residual activity: 16%
[21]; compound 0.1 µM
  residual activity: 118%
[21]; compound 1.0 µM
  residual activity: 99%
[22]; compound 0.1 µM
  residual activity: 27%
[22]; compound 1.0 µM
  residual activity: 8%
[23]; compound 0.1 µM
  residual activity: 113%
[23]; compound 1.0 µM
  residual activity: 99%
[24]; compound 0.1 µM
  residual activity: 100%
[24]; compound 1.0 µM
  residual activity: 104%
[25]; compound 0.1 µM
  residual activity: 99%
[25]; compound 1.0 µM
  residual activity: 81%
[26]; compound 0.1 µM
  residual activity: 101%
[26]; compound 1.0 µM
  residual activity: 99%
[27]; compound 0.1 µM
  residual activity: 99%
[27]; compound 1.0 µM
  residual activity: 79%
[28]; compound 0.1 µM
  residual activity: 107%
[28]; compound 1.0 µM
  residual activity: 113%
[29]; compound 0.1 µM
  residual activity: 130%
[29]; compound 1.0 µM
  residual activity: 111%
[30]; compound 0.1 µM
  residual activity: 111%
[30]; compound 1.0 µM
  residual activity: 105%
[31]; compound 0.1 µM
  residual activity: 64%
[31]; compound 1.0 µM
  residual activity: 37%
[32]; compound 0.1 µM
  residual activity: 66%
[32]; compound 1.0 µM
  residual activity: 13%
[33]; compound 0.1 µM
  residual activity: 90%
[33]; compound 1.0 µM
  residual activity: 46%
[34]; compound 0.1 µM
  residual activity: 96%
[34]; compound 1.0 µM
  residual activity: 98%
